# Measured values as given in patent US5773430A, “Serine proteinase inhibitory activity by hydrophobic tetracycline” (Research Foundation of State University of New York, priority 1997, dated 1998).
# Entries after “also recorded” stand apart in the source; their conditions may differ. Where two headings read alike, the source gives them in different places.
# Legend:
# [1] = biological target: T1, human leukocyte elastase (HLE) (Homo sapiens, UniProt P08246); assay: HLE amidolytic activity (methoxysuccinyl-Ala-Ala-Pro-Val-p-nitroanilide); format: biochemical
# T1 sequence (P08246 30-267): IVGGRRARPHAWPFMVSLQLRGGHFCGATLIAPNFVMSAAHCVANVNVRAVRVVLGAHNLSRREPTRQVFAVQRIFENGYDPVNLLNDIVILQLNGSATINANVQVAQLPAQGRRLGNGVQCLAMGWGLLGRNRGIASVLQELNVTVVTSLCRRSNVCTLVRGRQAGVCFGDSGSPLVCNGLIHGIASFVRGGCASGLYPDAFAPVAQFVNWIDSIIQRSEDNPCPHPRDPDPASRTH
# Source text: This oligopeptide is generally assumed to occupy the first five subsites of the extended substrate binding domain in HLE.
# To avoid time-dependent adsorption of HLE onto the wells of the 96-well microplates used in the amidolytic assays, the plates were pretreated with a solution of 0.2% bovine serum albumin. […] The […] concentration at which the Dixon plots intersect is a measure of Ki for the inhibitor.
# The inhibitory activity of doxycycline towards amidolysis of methoxysuccinyl-Ala-Ala-Pro-Val-p-nitroanilide by HLE was also determined in the presence of 2% DMSO and no detergent, as described above for CMT-3.
# [2] = biological target: T1, human leukocyte elastase (HLE); assay: ECM degradation mediated by purified HLE; format: biochemical
# Procedure: Direct inhibition of HLE by CMT-3 was determined (Example 2) using a modification of the assay of human leukocyte elastase (HLE) activity described by Ying et al. (Q. Ying, A. R. Rinehart, S. R. Simon, and J. C. Cheronis, "Inhibition of Human Leukocyte Elastase by Ursolic Acid: Evidence for a Hydrophobic Binding Site for Pentacyclic Triterpenes," Biochem. J. 277, 521-526 (1991)) in which the organic solvent and detergent concentrations have been reduced, using a traditional assay of human leukocyte elastase (HLE) activity by measurement of the amidolysis of the chromogenic oligopeptide substrate, methoxysuccinyl-Ala-Ala-Pro-Val-p-nitroanilide. This oligopeptide is generally assumed to occupy the first five subsites of the extended substrate binding domain in HLE. […] When CMT-3 is employed in the assay of ECM degradation mediated by purified HLE rather than live neutrophils, it proves to be an effective inhibitor, with an apparent I50 of ~25-50 μM.
# The capacity of CMT-3 to inhibit HLE is not confined to amidolytic assays, as already shown in FIG. 2, in which the degradation of a complete interstitial extracellular matrix by purified HLE is inhibited by CMT-3.
# [3] = biological target: T1, human leukocyte elastase (HLE); assay: HLE amidolytic activity (methoxysuccinyl-Ala-Ala-Pro-Val-p-nitroanilide); format: biochemical; details: in the presence of 10% dimethylsulfoxide and 0.1% Triton X-100
# leukocyte elastase [4] = assay: Leukocyte elastase activity in gingival extracts of LPS-injected rats; format: in vivo, rat; details: 2 mg or 5 mg CMT-3 daily, oral gavage, six days, succinyl-Ala-Ala-Ala-p-nitroanilide
# Procedure: Rats received 0.01 mg of E. coli lipopolysaccharide (LPS) or only a vehicle of saline injected in a volume of 10 μl into the maxillary and mandibular labial gingiva on alternate days for a period of six days. Two sets of rats also received 2 mg or 5 mg CMT-3 daily in a volume of 1 ml, administered by oral gavage, for the six day period, while the other sets of rats received only the vehicle of 2% carboxymethylcellulose. At the end of the six day treatment period, the animals were sacrificed and the gingival tissues were dissected. The tissues from each experimental group were pooled, frozen and thawed, and extracted for assays of enzymatic activity according to the procedure of Yu et al. (Z. Yu, N. S. Ramamurthy, M. Leung, K. M. Chang, T. F. McNamara, and L. M. Golub, "Chemically Modified Tetracycline Normalizes Collagen Metabolism in Diabetic Rats," J. Periodont. Res. 28, 420-428 (1993)). Leukocyte elastase activity was assayed using the substrate succinyl-Ala-Ala-Ala-p-nitroanilide according to the procedure of Ramamurthy and Golub (1983) (N. S. Ramamurthy, and L. M. Golub, "Diabetes Increases Collagenase Activity in Extracts of Rat Gingiva and Skin," J. Periodont. Res. 18, 23-30 (1983)). The finding reported here is the capacity of orally administered CMT-3 to reduce the level of leukocyte elastase activity in the gingival extracts of LPS-injected rats. […]
# [5] = system: human neutrophils (live PMN's); assay: Neutrophil (PMN + 0.5 nM PMA)-mediated R22-ECM hydrolysis (3H-proline cpm released in 6 h); format: cell-based
# Source text: The activity of various tetracyclines was investigated employing an in vitro assay of inflammatory tissue injury in which human neutrophils are allowed to degrade a biosynthetically prepared complete interstitial stromal extracellular matrix (ECM). A neutrophil is one type of leukocyte (polymorphonuclear leukocyte). […] E. J. Roemer, K. J. Stanton, and S. R. Simon, "In Vitro Assay Systems for Inflammatory Cell-Mediated Damage to Interstitial Extracellular Matrix," In Vitro Toxicol. 7,75-81 (1994); E. J. Roemer, K. J. Stanton, and S. R. Simon, "In Vitro Assay Systems for Cell Interactions With Interstitial Extracellular Matrix," In Vitro Toxicol. 7,209-224 (1994).
# The serine proteinase inhibiting activity of tetracyclines was tested using an in vitro assay of inflammatory tissue injury in which human neutrophils (live PMN's) were allowed to degrade a biosynthetically prepared complete interstitial stromal extracellular matrix (ECM) produced by cultured R22 rat heart smooth muscle cells as described by Roemer et al. (E. J. Roemer, K. J. Stanton, and S. R. Simon, "In Vitro Assay Systems for Inflammatory Cell-Mediated Damage to Interstitial Extracellular Matrix," In Vitro Toxicol. 7,75-81 (1994); E. J. Roemer, K. J. Stanton, and S. R. Simon, "In Vitro Assay Systems for Cell Interactions With Interstitial Extracellular Matrix," In Vitro Toxicol. 7,209-224 (1994)). Ten different chemically modified tetracyclines (CMTs) designated CMT-1 through CMT-10 and doxycycline, at concentrations ranging from 5 μM to 50 μM, were added to the ECM simultaneously with a suspension of 2×10^6 viable human PMN/mL in Hank's balanced salts solution (HBSS). In these studies, the ECM was metabolically radiolabeled with ^3 H-proline, and counts solubilized after six hours of incubation were measured and compared with counts released after incubation with PMN alone.
# leukocyte elastase [6] = biological target: T2, leukocyte elastase (Homo sapiens, UniProt P08246); assay: Leukocyte elastase inhibitory activity; format: biochemical
# T2 sequence (P08246 30-247): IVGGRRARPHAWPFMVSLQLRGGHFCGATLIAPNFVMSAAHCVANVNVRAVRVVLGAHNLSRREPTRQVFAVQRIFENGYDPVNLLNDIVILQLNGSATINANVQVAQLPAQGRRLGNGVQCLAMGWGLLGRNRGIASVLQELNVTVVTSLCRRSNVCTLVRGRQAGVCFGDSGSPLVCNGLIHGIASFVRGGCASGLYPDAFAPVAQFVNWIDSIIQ
structure (smiles),measurement,setting,value
"NC(=O)C1=C(O)C2(O)C(=O)C3=C(O)c4c(O)cccc4CC3CC2CC1=O (stereo not drawn) [CMT-3, 6-demethyl-6-deoxy-4-de(dimethylamino)tetracycline]",Ki,"[1]; 2% DMSO, no detergent, 100 μM through 300 μM substrate, Dixon plot, read-out: Ki for inhibition of amidolytic activity of HLE",25 to 40 µM
same,mechanism of inhibition of HLE amidolytic activity,[1]; Dixon and Cornish-Bowden plots,predominantly competitive inhibitor
same,Ki,"[1]; Dixon and Cornish-Bowden plots, FIGS. 3-5, read-out: apparent K1, inhibition of amidolysis",18 to 40 µM
same,"inhibition of HLE-mediated degradation of ECM, in words","[2]; FIG. 2: 25 μM CMT-3, 10 μM purified HLE, compared with PMN, other tetracyclines at comparable doses",comparable inhibition of human neutrophil-mediated and human leukocyte elastase-mediated degradation of extracellular matrix; also recorded: comparable to that determined from the assays of HLE amidolytic activity
same,IC50,"[2]; purified HLE rather than live neutrophils, read-out: apparent I50, ECM degradation mediated by purified HLE",25 to 50 µM
same,"inhibitory potency, HLE amidolytic activity, in words",[3],markedly reduced
same,"leukocyte elastase activity in gingival extracts, in words",leukocyte elastase [4],reduced the activity of leukocyte elastase; also recorded: to the levels detected in animals receiving gingival injections of saline solution alone
same,inhibition of neutrophil-mediated ECM degradation,[5],~ 50%
same,"capacity to inhibit ECM degradation (protecting the ECM from neutrophil-mediated destruction), in words","[5]; 30 μM, FIG. 1",far superior to other tetracyclines in protecting the ECM from neutrophil-mediated destruction
same,"inhibition of ECM degradation, in words","[5]; 5-50 μM, Table 1 and FIG. 1",good inhibition of ECM degradation at all doses employed in this assay
same,inhibition of neutrophil-mediated ECM degradation,"[5]; 25-50 μM, dose response studies",approximately 50%
same,activity at 5 µM,"[5]; Homo sapiens, Neutrophil, 5 μm, control = hydrolysis in absence of any inhibitor normalized to 100%, 6 h at 37° C.",69%
same,activity at 25 µM,"[5]; Homo sapiens, Neutrophil, 25 μm, control = hydrolysis in absence of any inhibitor normalized to 100%, 6 h at 37° C.",55%
same,activity at 50 µM,"[5]; Homo sapiens, Neutrophil, 50 μm, control = hydrolysis in absence of any inhibitor normalized to 100%, 6 h at 37° C.",50%
same,"leukocyte elastase inhibitory activity, in words",leukocyte elastase [6],substantial leukocyte elastase inhibitory activity
